Source: patent publication US20140128399A1, “METHODS AND COMPOSITIONS FOR TREATING URINARY TRACT INFECTIONS USING AGENTS THAT MIMIC OR ELEVATE CYCLIC AMP” (DUKE UNIVERSITY, priority 2007, published 2014)

Test system: E. coli-infected human bladder epithelial cells (BECs)
Experiment: Intracellular bacterial levels in BECs
Type: cell-based
Conditions: single agent, presented as % of control in figures
Protocol: Intracellular bacterial levels in BECs were measured in untreated BECs and in BECs treated with forskolin, various PDE inhibitors, and a combination of forskolin with a PDE inhibitor. Several PDE inhibitors were used, including both broadly active PDE inhibitors that block PDEs in a non-specific manner as well as specific PDE inhibitors that block only certain PDEs.

CCCCCCCCCCCCCC(=O)O[C@@H]1[C@@H](C)[C@@]2(O)[C@@H](C=C(CO)C[C@]3(O)C(=O)C(C)=C[C@@H]23)[C@@H]2C(C)(C)[C@]12OC(C)=O [PMA, phorbol myristate acetate]
bacterial loads / intracellular bacterial numbers in BECs: significantly reduced
